Experimental data taken from patent US8802597B2, “Herbicidal pyrimidines” (E I du Pont de Nemours and Company, priority 2003, dated 2014).
Read-outs that look alike come from different tables or passages of the source.

What was measured:
Assay in all cases: Test C pre/postemergence
Assay type in all cases: in vivo
[1] = tested on: johnsongrass (Sorghum halepense); conditions: Sorghum halepense; for pest or weed control at 62 g/ha: 62 g ai/ha; for pest or weed control at 125 g/ha: 125 g ai/ha; for pest or weed control at 250 g/ha: 250 g ai/ha; for pest or weed control at 500 g/ha: 500 g ai/ha
Summary of the method: (§1)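 Seeds sown and sprayed preemergence with test compound in non-phytotoxic solvent containing surfactant; postemergence sprays, same formulation, went onto plants 2 to 18 cm tall (1- to 4-leaf stage). Plants held in greenhouse 12 to 14 days, then visually rated against untreated controls on a 0–100 scale (0 no effect, 100 complete control).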

kochia (Kochia scoparia) = conditions: Bassia scoparia, post-emergence, Postemergence
Summary of the method: as §1

[2] = tested on: morningglory (Ipomoea coccinea); conditions: Ipomoea; for pest or weed control at 62 g/ha: 62 g ai/ha; for pest or weed control at 125 g/ha: 125 g ai/ha; for pest or weed control at 250 g/ha: 250 g ai/ha; for pest or weed control at 500 g/ha: 500 g ai/ha
Summary of the method: as §1

[3] = tested on: pigweed (Amaranthus retroflexus); conditions: Amaranthus retroflexus; for pest or weed control at 62 g/ha: 62 g ai/ha; for pest or weed control at 125 g/ha: 125 g ai/ha; for pest or weed control at 250 g/ha: 250 g ai/ha; for pest or weed control at 500 g/ha: 500 g ai/ha
Summary of the method: as §1

soybean (Glycine max) = conditions: Glycine max; for plant injury at 62 g/ha: 62 g ai/ha; for plant injury at 125 g/ha: 125 g ai/ha; for plant injury at 250 g/ha: 250 g ai/ha; for plant injury at 500 g/ha: 500 g ai/ha
Summary of the method: as §1

[4] = tested on: woolly cupgrass (Eriochloa villosa); conditions: Eriochloa villosa; for pest or weed control at 62 g/ha: 62 g ai/ha; for pest or weed control at 125 g/ha: 125 g ai/ha; for pest or weed control at 250 g/ha: 250 g ai/ha; for pest or weed control at 500 g/ha: 500 g ai/ha
Summary of the method: as §1

[5] = post-emergence, Postemergence, scale 0 to 100 (0 no effect, 100 complete control), read-out: Johnsongrass plant response rating
[6] = post-emergence, Postemergence, scale 0 to 100, read-out: Plant response rating, Johnsongrass
[7] = pre-emergence, Preemergence, scale 0 to 100, read-out: Plant response rating, Johnsongrass
[8] = post-emergence, Postemergence, scale 0 to 100 (0 no effect, 100 complete control), read-out: Morningglory plant response rating
[9] = post-emergence, Postemergence, scale 0 to 100, read-out: Plant response rating, Morningglory
[10] = pre-emergence, Preemergence, scale 0 to 100, read-out: Plant response rating, Morningglory
[11] = post-emergence, Postemergence, scale 0 to 100 (0 no effect, 100 complete control), read-out: Pigweed plant response rating
[12] = post-emergence, Postemergence, scale 0 to 100, read-out: Plant response rating, Pigweed
[13] = pre-emergence, Preemergence, scale 0 to 100, read-out: Plant response rating, Pigweed
[14] = post-emergence, Postemergence, scale 0 to 100 (0 no effect, 100 complete control), read-out: Soybean plant response rating
[15] = post-emergence, Postemergence, scale 0 to 100, read-out: Plant response rating, Soybean
[16] = pre-emergence, Preemergence, scale 0 to 100, read-out: Plant response rating, Soybean
[17] = post-emergence, Postemergence, scale 0 to 100 (0 no effect, 100 complete control), read-out: Cupgrass, Woolly plant response rating
[18] = post-emergence, Postemergence, scale 0 to 100, read-out: Plant response rating, Cupgrass, Woolly
[19] = pre-emergence, Preemergence, scale 0 to 100, read-out: Plant response rating, Cupgrass, Woolly

## Nc1nc(C2CC2)nc(C(=O)OCc2ccccc2)c1Br [Compound 22, phenylmethyl 6-amino-5-bromo-2-cyclopropyl-4-pyrimidinecarboxylate]
[1]; [5]
  pest or weed control at 62 g/ha: 40%
  pest or weed control at 125 g/ha: 80%
[1]; [6]
  pest or weed control at 250 g/ha: 80%
  pest or weed control at 500 g/ha: 100%
[1]; pre-emergence, Preemergence, scale 0 to 100, 0 no effect, 100 complete control, read-out: Plant response rating, Johnsongrass
  pest or weed control at 62 g/ha: 80%
[1]; [7]
  pest or weed control at 125 g/ha: 100%
  pest or weed control at 250 g/ha: 100%
  pest or weed control at 500 g/ha: 100%
Kochia (Kochia scoparia); 62 g ai/ha, scale 0 to 100 (0 no effect, 100 complete control), read-out: Kochia plant response rating
  pest or weed control at 62 g/ha: 95%
Kochia (Kochia scoparia); 125 g ai/ha, scale 0 to 100 (0 no effect, 100 complete control), read-out: Kochia plant response rating
  pest or weed control at 125 g/ha: 100%
Kochia (Kochia scoparia); 250 g ai/ha, scale 0 to 100, read-out: Plant response rating, Kochia
  pest or weed control at 250 g/ha: 100%
Kochia (Kochia scoparia); 500 g ai/ha, scale 0 to 100, read-out: Plant response rating, Kochia
  pest or weed control at 500 g/ha: 100%
[2]; [8]
  pest or weed control at 62 g/ha: 90%
  pest or weed control at 125 g/ha: 90%
[2]; [9]
  pest or weed control at 250 g/ha: 95%
  pest or weed control at 500 g/ha: 100%
[2]; pre-emergence, Preemergence, scale 0 to 100, 0 no effect, 100 complete control, read-out: Plant response rating, Morningglory
  pest or weed control at 62 g/ha: 100%
[2]; [10]
  pest or weed control at 125 g/ha: 100%
  pest or weed control at 250 g/ha: 100%
  pest or weed control at 500 g/ha: 100%
[3]; [11]
  pest or weed control at 62 g/ha: 85%
  pest or weed control at 125 g/ha: 100%
[3]; [12]
  pest or weed control at 250 g/ha: 100%
  pest or weed control at 500 g/ha: 100%
[3]; pre-emergence, Preemergence, scale 0 to 100, 0 no effect, 100 complete control, read-out: Plant response rating, Pigweed
  pest or weed control at 62 g/ha: 90%
[3]; [13]
  pest or weed control at 125 g/ha: 100%
  pest or weed control at 250 g/ha: 100%
  pest or weed control at 500 g/ha: 100%
Soybean (Glycine max); [14]
  plant injury at 62 g/ha: 95%
  plant injury at 125 g/ha: 100%
Soybean (Glycine max); [15]
  plant injury at 250 g/ha: 100%
  plant injury at 500 g/ha: 100%
Soybean (Glycine max); pre-emergence, Preemergence, scale 0 to 100, 0 no effect, 100 complete control, read-out: Plant response rating, Soybean
  plant injury at 62 g/ha: 95%
Soybean (Glycine max); [16]
  plant injury at 125 g/ha: 95%
  plant injury at 250 g/ha: 100%
  plant injury at 500 g/ha: 100%
[4]; [17]
  pest or weed control at 62 g/ha: 60%
  pest or weed control at 125 g/ha: 60%
[4]; [18]
  pest or weed control at 250 g/ha: 60%
  pest or weed control at 500 g/ha: 65%
[4]; pre-emergence, Preemergence, scale 0 to 100, 0 no effect, 100 complete control, read-out: Plant response rating, Cupgrass, Woolly
  pest or weed control at 62 g/ha: 40%
[4]; [19]
  pest or weed control at 125 g/ha: 95%
  pest or weed control at 250 g/ha: 95%
  pest or weed control at 500 g/ha: 95%
